Source: patent publication US20150209294A1, “PHARMACEUTICAL COMPOSITION AND PROCESS” (Hoffmann-La Roche Inc., priority 2006, published 2015)

Key:
[1] = oral bioavailability in rats; settings: rat, in vivo
[2] = oral bioavailability in dogs; settings: dog, in vivo
permeability of R 411 = type: in vitro ADME; settings: limited permeability
[3] = pH-dependent chemical stability (hydrolysis of ester linkage); type: physicochemical; settings: at pH>6
[4] = oral bioavailability in monkeys; settings: monkey, in vivo

bioavailability [1]: 20%
bioavailability [2]: 20%
permeability (permeability of R 411): 58×10^−6 cm^2/sec
stability to hydrolysis [3]: prone to alkaline hydrolysis
bioavailability [4]: 6%
Structure (SMILES): CCN(CC)CCOC(=O)[C@H](Cc1ccc(NC(=O)c2c(Cl)cccc2Cl)cc1)NC(=O)c1c(C)cccc1Cl.Cl [R 411, N-(2-chloro-6-methylbenzoyl)-4-[(2,6-dichlorobenzoyl)amino]-L-phenylalanine-2-(diethylamino)ethyl ester hydrochloride]
